Measurements: US9296757B2, “Substituted benzothienopyrimidines” (BAYER PHARMA AKTIENGESELLSCHAFT, priority 2012, dated 2016)

biological target: human full-length MKNK1 (Homo sapiens (Human), UniProt Q9BUB5, T344D); experiment: MKNK1 kinase high ATP assay (TR-FRET); type: biochemical; details: high ATP (2 mM final), 15 min preincubation with enzyme
Method: MKNK1-inhibitory activity at high ATP of compounds of the present invention after their preincubation with MKNK1 was quantified employing the TR-FRET-based MKNK1 high ATP assay as described in the following paragraphs.
A recombinant fusion protein of Glutathione-S-Transferase (GST, N-terminally) and human full-length MKNK1 (amino acids 1-424 and T344D of accession number BAA 19885.1), expressed in insect cells using baculovirus expression system and purified via glutathione sepharose affinity chromatography, was purchased from Carna Biosciences (product no 02-145) and used as enzyme. As substrate for the kinase reaction the biotinylated peptide biotin-Ahx-IKKRKLTRRKSLKG (C-terminus in amide form) was used, which can be purchased e.g. from the company Biosyntan (Berlin-Buch, Germany).
For the assay 50 nL of a 100 fold concentrated solution of the test compound in DMSO was pipetted into a black low volume 384 well microtiter plate (Greiner Bio-One, Frickenhausen, Germany), 2 μL of a solution of MKNK1 in aqueous assay buffer [50 mM HEPES pH 7.5, 5 mM MgCl2, 1.0 mM dithiothreitol, 0.005% (v/v) Nonidet-P40 (Sigma)] was added and the mixture was incubated for 15 min at 22° C. to allow pre-binding of the test compounds to the enzyme before the start of the kinase reaction. Then the kinase reaction was started by the addition of 3 μL of a solution of adenosine-tri-phosphate (ATP, 3.3 mM=>final conc. in the 5 μL assay volume is 2 mM) and substrate (0.1 μM=>final conc. in the 5 μL assay volume is 0.06 μM) in assay buffer and the resulting mixture was incubated for a reaction time of 30 min at 22° C. The concentration of MKNK1 was adjusted depending of the activity of the enzyme lot and was chosen appropriate to have the assay in the linear range, typical concentrations were in the range of 0.003 μg/mL. The reaction was stopped by the addition of 5 μL of a solution of TR-FRET detection reagents (5 nM streptavidine-XL665 [Cisbio Bioassays, Codolet, France] and 1 nM anti-ribosomal protein S6 (pSer236)-antibody from Invitrogen [#44921G] and 1 nM LANCE EU-W1024 labeled ProteinG [Perkin-Elmer, product no. AD0071]) in an aqueous EDTA-solution (100 mM EDTA, 0.1% (w/v) bovine serum albumin in 50 mM HEPES pH 7.5).
The resulting mixture was incubated for 1 h at 22° C. to allow the formation of complex between the phosphorylated biotinylated peptide and the detection reagents. Subsequently the amount of phosphorylated substrate was evaluated by measurement of the resonance energy transfer from the Eu-chelate to the streptavidine-XL. Therefore, the fluorescence emissions at 620 nm and 665 nm after excitation at 350 nm were measured in a TR-FRET reader, e.g. a Rubystar (BMG Labtechnologies, Offenburg, Germany) or a Viewlux (Perkin-Elmer). The ratio of the emissions at 665 nm and at […] was taken as the measure for the amount of phosphorylated substrate. The data were normalised (enzyme reaction without inhibitor=0% inhibition, all other assay components but no enzyme=100% inhibition).

Chain of human full-length MKNK1 (Q9BUB5 other isoform, or with tags, fused parts or gaps T344D): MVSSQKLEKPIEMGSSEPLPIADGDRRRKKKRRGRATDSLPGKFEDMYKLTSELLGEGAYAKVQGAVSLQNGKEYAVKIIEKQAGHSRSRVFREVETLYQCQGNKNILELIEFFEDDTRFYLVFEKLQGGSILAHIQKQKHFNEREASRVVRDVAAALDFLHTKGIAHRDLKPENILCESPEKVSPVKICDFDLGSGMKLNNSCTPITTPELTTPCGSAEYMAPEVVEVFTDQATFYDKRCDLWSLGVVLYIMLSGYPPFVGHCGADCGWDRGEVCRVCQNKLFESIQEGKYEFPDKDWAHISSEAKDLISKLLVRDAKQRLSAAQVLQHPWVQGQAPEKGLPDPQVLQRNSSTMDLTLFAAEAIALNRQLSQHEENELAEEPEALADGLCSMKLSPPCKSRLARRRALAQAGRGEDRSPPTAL

Row | IC50 [nM] | Structure (SMILES)
1 | 43 | O=C(NCC1CCc2c(sc3ncnc(Nc4ccc5[nH]c(=O)sc5c4)c23)C1)[C@@H](O)Cc1ccccc1 (mixture of isomers) [Example 23, (2R)-2-Hydroxy-N-({(7RS)-4-[(2-oxo-2,3-dihydro-1,3-benzothiazol-6-yl)amino]-5,6,7,8-tetrahydro[1]benzothieno[2,3-d]pyrimidin-7-yl}methyl)-3-phenylpropanamide]
2 | 100 | CC(C)(C)OC(=O)N[C@@H](CCO)C(=O)NCC1CCc2c(sc3ncnc(Nc4ccc5[nH]c(=O)sc5c4)c23)C1 (mixture of isomers) [Example 27, tert-Butyl {(2R)-4-hydroxy-1-oxo-1-[({(7RS)-4-[(2-oxo-2,3-dihydro-1,3-benzothiazol-6-yl)amino]-5,6,7,8-tetrahydro[1]benzothieno[2,3-d]pyrimidin-7-yl}methyl)amino]butan-2-yl}carbamate]
3 | 92 | N[C@@H](CCO)C(=O)NCC1CCc2c(sc3ncnc(Nc4ccc5[nH]c(=O)sc5c4)c23)C1 (mixture of isomers) [Example 32, N-({4-[(2-Oxo-2,3-dihydro-1,3-benzothiazol-6-yl)amino]-5,6,7,8-tetrahydro[1]benzothieno[2,3-d]pyrimidin-7-(RS)-yl}methyl)-L-homoserinamide]
4 | 47 | CCOC(=O)C1CCc2c(sc3ncnc(Nc4ccc5[nH]c(=O)sc5c4)c23)C1 (racemic) [Example 1, (RS)-Ethyl 4-[(2-oxo-2,3-dihydro-1,3-benzothiazol-6-yl)amino]-5,6,7,8-tetrahydro[1]benzothieno[2,3-d]pyrimidine-7-carboxylate]
5 | 108 | O=C(O)C1CCc2c(sc3ncnc(Nc4ccc5[nH]c(=O)sc5c4)c23)C1 (racemic) [Example 2, (RS)-4-[(2-Oxo-2,3-dihydro-1,3-benzothiazol-6-yl)amino]-5,6,7,8-tetrahydro[1]benzothieno[2,3-d]pyrimidine-7-carboxylic acid]
6 | 39 | CCNC(=O)C1CCc2c(sc3ncnc(Nc4ccc5[nH]c(=O)sc5c4)c23)C1 (racemic) [Example 3, (RS)—N-Ethyl-4-[(2-oxo-2,3-dihydro-1,3-benzothiazol-6-yl)amino]-5,6,7,8-tetrahydro[1]benzothieno[2,3-d]pyrimidine-7-carboxamide]
7 | 57 | O=C(NC1CC1)C1CCc2c(sc3ncnc(Nc4ccc5[nH]c(=O)sc5c4)c23)C1 (racemic) [Example 4, (RS)—N-Cyclopropyl-4-[(2-oxo-2,3-dihydro-1,3-benzothiazol-6-yl)amino]-5,6,7,8-tetrahydro[1]benzothieno[2,3-d]pyrimidine-7-carboxamide]
8 | 36 | CC(C)NC(=O)C1CCc2c(sc3ncnc(Nc4ccc5[nH]c(=O)sc5c4)c23)C1 (racemic) [Example 5, (RS)—N-Isopropyl-4-[(2-oxo-2,3-dihydro-1,3-benzothiazol-6-yl)amino]-5,6,7,8-tetrahydro[1]benzothieno[2,3-d]pyrimidine-7-carboxamide]
9 | 40 | CC(C)CNC(=O)C1CCc2c(sc3ncnc(Nc4ccc5[nH]c(=O)sc5c4)c23)C1 (racemic) [Example 6, (RS)—N-Isobutyl-4-[(2-oxo-2,3-dihydro-1,3-benzothiazol-6-yl)amino]-5,6,7,8-tetrahydro[1]benzothieno[2,3-d]pyrimidine-7-carboxamide]
10 | 42 | O=C(NCCC(F)(F)F)C1CCc2c(sc3ncnc(Nc4ccc5[nH]c(=O)sc5c4)c23)C1 (racemic) [Example 7, (RS)-4-[(2-Oxo-2,3-dihydro-1,3-benzothiazol-6-yl)amino]-N-(3,3,3-trifluoropropyl)-5,6,7,8-tetrahydro[1]benzothieno[2,3-d]pyrimidine-7-carboxamide]
11 | 33 | O=C(Nc1ccccc1)C1CCc2c(sc3ncnc(Nc4ccc5[nH]c(=O)sc5c4)c23)C1 (racemic) [Example 8, (RS)-4-[(2-Oxo-2,3-dihydro-1,3-benzothiazol-6-yl)amino]-N-phenyl-5,6,7,8-tetrahydro[1]benzothieno[2,3-d]pyrimidine-7-carboxamide]
12 | 9 | O=C(NCc1ccccc1)C1CCc2c(sc3ncnc(Nc4ccc5[nH]c(=O)sc5c4)c23)C1 (racemic) [Example 9, (RS)—N-Benzyl-4-[(2-oxo-2,3-dihydro-1,3-benzothiazol-6-yl)amino]-5,6,7,8-tetrahydro[1]benzothieno[2,3-d]pyrimidine-7-carboxamide]
13 | 11 | O=C(NCc1cccc(C(F)(F)F)c1)C1CCc2c(sc3ncnc(Nc4ccc5[nH]c(=O)sc5c4)c23)C1 (racemic) [Example 10, (RS)-4-[(2-Oxo-2,3-dihydro-1,3-benzothiazol-6-yl)amino]-N-[3-(trifluoromethyl)benzyl]-5,6,7,8-tetrahydro[1]benzothieno[2,3-d]pyrimidine-7-carboxamide]
14 | 91 | CNC(=O)C1CCc2c(sc3ncnc(Nc4ccc5[nH]c(=O)sc5c4)c23)C1 (racemic) [Example 11, (RS)—N-Methyl-4-[(2-oxo-2,3-dihydro-1,3-benzothiazol-6-yl)amino]-5,6,7,8-tetrahydro[1]benzothieno[2,3-d]pyrimidine-7-carboxamide]
15 | 48 | O=C(NCC1CC1)C1CCc2c(sc3ncnc(Nc4ccc5[nH]c(=O)sc5c4)c23)C1 (racemic) [Example 12, (RS)—N-(Cyclopropylmethyl)-4-[(2-oxo-2,3-dihydro-1,3-benzothiazol-6-yl)amino]-5,6,7,8-tetrahydro[1]benzothieno[2,3-d]pyrimidine-7-carboxamide]
16 | 41 | CN(C)C(=O)C1CCc2c(sc3ncnc(Nc4ccc5[nH]c(=O)sc5c4)c23)C1 (racemic) [Example 13, (RS)—N,N-Dimethyl-4-[(2-oxo-2,3-dihydro-1,3-benzothiazol-6-yl)amino]-5,6,7,8-tetrahydro[1]benzothieno[2,3-d]pyrimidine-7-carboxamide]
17 | 25 | O=C(NCc1cccc(F)c1)C1CCc2c(sc3ncnc(Nc4ccc5[nH]c(=O)sc5c4)c23)C1 (racemic) [Example 14, (RS)—N-(3-Fluorobenzyl)-4-[(2-oxo-2,3-dihydro-1,3-benzothiazol-6-yl)amino]-5,6,7,8-tetrahydro[1]benzothieno[2,3-d]pyrimidine-7-carboxamide]
18 | 85 | O=C(NCC(F)(F)F)C1CCc2c(sc3ncnc(Nc4ccc5[nH]c(=O)sc5c4)c23)C1 (racemic) [Example 15, (RS)-4-[(2-oxo-2,3-dihydro-1,3-benzothiazol-6-yl)amino]-N-(2,2,2-trifluoroethyl)-5,6,7,8-tetrahydro[1]benzothieno[2,3-d]pyrimidine-7-carboxamide]
19 | 304 | COCC1(OC)CCc2c(sc3ncnc(Nc4ccc5[nH]c(=O)sc5c4)c23)C1 (racemic) [Example 16, (RS)-6-{[7-Methoxy-7-(methoxymethyl)-5,6,7,8-tetrahydro[1]benzothieno[2,3-d]pyrimidin-4-yl]amino}-1,3-benzothiazol-2(3H)-one]
20 | 128 | CC1CCc2c(sc3ncnc(Nc4ccc5[nH]c(=O)sc5c4)c23)C1 (racemic) [Example 17, (RS)-6-[(7-Methyl-5,6,7,8-tetrahydro[1]benzothieno[2,3-d]pyrimidin-4-yl)amino]-1,3-benzothiazol-2(3H)-one]
21 | 60 | O=c1[nH]c2ccc(Nc3ncnc4sc5c(c34)CCC(CO)C5)cc2s1 (racemic) [Example 18, (RS)-6-{[7-(Hydroxymethyl)-5,6,7,8-tetrahydro[1]benzothieno[2,3-d]pyrimidin-4-yl]amino}-1,3-benzothiazol-2(3H)-one]
22 | 93 | [N-]=[N+]=NCC1CCc2c(sc3ncnc(Nc4ccc5[nH]c(=O)sc5c4)c23)C1 (racemic) [Example 19, (RS)-6-{[7-(Azidomethyl)-5,6,7,8-tetrahydro[1]benzothieno[2,3-d]pyrimidin-4-yl]amino}-1,3-benzothiazol-2(3H)-one]
23 | 103 | NCC1CCc2c(sc3ncnc(Nc4ccc5[nH]c(=O)sc5c4)c23)C1 (racemic) [Example 20, (RS)-6-{[7-(Aminomethyl)-5,6,7,8-tetrahydro[1]benzothieno[2,3-d]pyrimidin-4-yl]amino}-1,3-benzothiazol-2(3H)-one]
